Data reported in ChEMBL document CHEMBL1926576, “Fragment based lead discovery of small molecule inhibitors for the EPHA4 receptor tyrosine kinase” (Eur J Med Chem, 2012).

Key:
[1] = biological target: Serine/threonine-protein kinase Chk2 (Homo sapiens) (UniProt O96017); experiment: Inhibition of CHK2 assessed as residual activity at 10 uM using [33P-ATP] by radiometric filter binding assay
[2] = biological target: Cyclin-dependent kinase 2/cyclin A (Homo sapiens) (UniProt P24941+P20248+P78396); experiment: Inhibition of CDK2/Cyclin A assessed as residual activity at 10 uM using [33P-ATP] by radiometric filter binding assay; type: protein-complex assay
[3] = biological target: Serine/threonine-protein kinase STK11 (Homo sapiens) (UniProt Q15831); experiment: Inhibition of LKB1 assessed as residual activity at 10 uM using [33P-ATP] by radiometric filter binding assay
[4] = biological target: Serine/threonine-protein kinase BRSK2 (Homo sapiens) (UniProt Q8IWQ3); experiment: Inhibition of BRSK2 assessed as residual activity at 10 uM using [33P-ATP] by radiometric filter binding assay
[5] = biological target: Rho-associated protein kinase 2 (Homo sapiens) (UniProt O75116); experiment: Inhibition of ROCK2 assessed as residual activity at 10 uM using [33P-ATP] by radiometric filter binding assay
Sequence of Rho-associated protein kinase 2 (Homo sapiens) (O75116 whole entry, looked up): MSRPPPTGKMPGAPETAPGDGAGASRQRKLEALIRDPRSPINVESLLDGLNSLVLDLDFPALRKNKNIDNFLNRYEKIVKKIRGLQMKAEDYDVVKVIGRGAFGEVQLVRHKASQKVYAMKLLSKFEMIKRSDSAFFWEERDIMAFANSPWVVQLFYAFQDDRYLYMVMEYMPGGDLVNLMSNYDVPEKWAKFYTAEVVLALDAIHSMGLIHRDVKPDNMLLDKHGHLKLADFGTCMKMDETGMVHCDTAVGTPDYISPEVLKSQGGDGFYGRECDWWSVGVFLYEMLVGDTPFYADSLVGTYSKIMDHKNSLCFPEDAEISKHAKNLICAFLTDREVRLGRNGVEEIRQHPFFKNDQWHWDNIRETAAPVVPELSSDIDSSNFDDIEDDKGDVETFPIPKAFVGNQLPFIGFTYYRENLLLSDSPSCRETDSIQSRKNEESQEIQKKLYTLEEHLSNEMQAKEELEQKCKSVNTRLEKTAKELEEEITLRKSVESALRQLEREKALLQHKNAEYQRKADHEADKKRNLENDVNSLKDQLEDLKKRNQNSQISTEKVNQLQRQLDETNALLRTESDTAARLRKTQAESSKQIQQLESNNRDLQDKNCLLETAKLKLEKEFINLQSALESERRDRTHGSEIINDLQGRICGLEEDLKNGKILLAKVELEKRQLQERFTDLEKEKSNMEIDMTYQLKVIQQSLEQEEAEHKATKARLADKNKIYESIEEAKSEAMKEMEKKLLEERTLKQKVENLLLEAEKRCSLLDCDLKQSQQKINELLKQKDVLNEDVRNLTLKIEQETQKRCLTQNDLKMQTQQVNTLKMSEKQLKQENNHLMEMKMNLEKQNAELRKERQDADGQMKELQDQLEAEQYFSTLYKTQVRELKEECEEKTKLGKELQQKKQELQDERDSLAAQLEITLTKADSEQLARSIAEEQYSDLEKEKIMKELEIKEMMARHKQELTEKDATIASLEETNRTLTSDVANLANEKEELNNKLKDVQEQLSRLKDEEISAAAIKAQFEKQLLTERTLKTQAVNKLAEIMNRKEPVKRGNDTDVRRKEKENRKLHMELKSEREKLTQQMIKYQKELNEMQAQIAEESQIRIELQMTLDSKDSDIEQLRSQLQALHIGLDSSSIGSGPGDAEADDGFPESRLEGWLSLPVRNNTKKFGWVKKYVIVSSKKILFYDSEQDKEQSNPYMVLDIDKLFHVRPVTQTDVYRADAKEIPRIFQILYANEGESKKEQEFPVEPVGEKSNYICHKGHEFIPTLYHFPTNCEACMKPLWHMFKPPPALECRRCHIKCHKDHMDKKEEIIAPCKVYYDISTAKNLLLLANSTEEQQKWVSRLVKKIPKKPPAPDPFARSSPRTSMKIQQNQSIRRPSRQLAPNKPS

[6] = biological target: Serine/threonine-protein kinase N2 (Homo sapiens) (UniProt Q16513); experiment: Inhibition of PRK2 assessed as residual activity at 10 uM using [33P-ATP] by radiometric filter binding assay
[7] = biological target: SRSF protein kinase 1 (Homo sapiens) (UniProt Q96SB4); experiment: Inhibition of SRPK1 assessed as residual activity at 10 uM using [33P-ATP] by radiometric filter binding assay
[8] = biological target: Insulin receptor (Homo sapiens) (UniProt P06213); experiment: Inhibition of IR assessed as residual activity at 10 uM using [33P-ATP] by radiometric filter binding assay
[9] = biological target: Serine/threonine-protein kinase PAK 6 (Homo sapiens) (UniProt Q9NQU5); experiment: Inhibition of PAK6 assessed as residual activity at 10 uM using [33P-ATP] by radiometric filter binding assay
Sequence of Serine/threonine-protein kinase PAK 6 (Homo sapiens) (Q9NQU5 whole entry, looked up): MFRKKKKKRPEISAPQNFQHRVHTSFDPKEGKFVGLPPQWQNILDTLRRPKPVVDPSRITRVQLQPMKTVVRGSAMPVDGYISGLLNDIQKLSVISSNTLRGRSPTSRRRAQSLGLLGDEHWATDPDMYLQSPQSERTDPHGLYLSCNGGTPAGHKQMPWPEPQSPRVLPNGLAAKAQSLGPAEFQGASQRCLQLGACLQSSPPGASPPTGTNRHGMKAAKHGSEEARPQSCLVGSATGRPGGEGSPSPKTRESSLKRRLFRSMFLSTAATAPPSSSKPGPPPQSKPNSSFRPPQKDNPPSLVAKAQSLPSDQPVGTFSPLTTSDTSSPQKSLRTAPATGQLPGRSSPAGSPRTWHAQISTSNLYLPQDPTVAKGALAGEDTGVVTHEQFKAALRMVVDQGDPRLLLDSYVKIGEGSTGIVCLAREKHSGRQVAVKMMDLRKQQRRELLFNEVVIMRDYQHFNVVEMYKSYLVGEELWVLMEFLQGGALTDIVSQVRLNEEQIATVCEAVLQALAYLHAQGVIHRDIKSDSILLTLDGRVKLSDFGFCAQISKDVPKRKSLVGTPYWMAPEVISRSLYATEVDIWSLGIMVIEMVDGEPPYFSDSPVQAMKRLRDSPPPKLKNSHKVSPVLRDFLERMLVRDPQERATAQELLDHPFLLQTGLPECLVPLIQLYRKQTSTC

[10] = biological target: Mitogen-activated protein kinase 12 (Homo sapiens) (UniProt P53778); experiment: Inhibition of p38-gamma MAPK assessed as residual activity at 10 uM using [33P-ATP] by radiometric filter binding assay
[11] = biological target: Mitogen-activated protein kinase 13 (Homo sapiens) (UniProt O15264); experiment: Inhibition of p38delta MAPK assessed as residual activity at 10 uM using [33P-ATP] by radiometric filter binding assay
Sequence of Mitogen-activated protein kinase 13 (Homo sapiens) (O15264 whole entry): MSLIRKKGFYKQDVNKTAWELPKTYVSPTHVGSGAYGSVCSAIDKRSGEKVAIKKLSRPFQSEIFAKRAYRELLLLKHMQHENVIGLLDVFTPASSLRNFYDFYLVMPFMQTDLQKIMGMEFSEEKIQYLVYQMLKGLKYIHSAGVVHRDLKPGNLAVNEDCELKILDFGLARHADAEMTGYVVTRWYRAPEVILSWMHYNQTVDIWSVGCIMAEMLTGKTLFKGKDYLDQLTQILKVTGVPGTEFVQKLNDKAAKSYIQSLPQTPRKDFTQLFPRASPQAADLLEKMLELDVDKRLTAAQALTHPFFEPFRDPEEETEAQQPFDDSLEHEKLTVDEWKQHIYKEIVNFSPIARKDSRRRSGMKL

[12] = biological target: Serine/threonine-protein kinase pim-3 (Homo sapiens) (UniProt Q86V86); experiment: Inhibition of PIM3 assessed as residual activity at 10 uM using [33P-ATP] by radiometric filter binding assay
[13] = biological target: Mitogen-activated protein kinase kinase kinase 5 (Homo sapiens) (UniProt Q99683); experiment: Inhibition of ASK1 assessed as residual activity at 10 uM using [33P-ATP] by radiometric filter binding assay
[14] = biological target: Mitogen-activated protein kinase 10 (Homo sapiens) (UniProt P53779); experiment: Inhibition of JNK3 assessed as residual activity at 10 uM using [33P-ATP] by radiometric filter binding assay
[15] = biological target: Mitogen-activated protein kinase 8 (Homo sapiens) (UniProt P45983); experiment: Inhibition of JNK1 assessed as residual activity at 10 uM using [33P-ATP] by radiometric filter binding assay
[16] = biological target: Mitogen-activated protein kinase kinase kinase 1 (Homo sapiens) (UniProt Q13233); experiment: Inhibition of MEKK1 assessed as residual activity at 10 uM using [33P-ATP] by radiometric filter binding assay
[17] = biological target: Serine/threonine-protein kinase 3 (Homo sapiens) (UniProt Q13188); experiment: Inhibition of MST2 assessed as residual activity at 10 uM using [33P-ATP] by radiometric filter binding assay
Sequence of Serine/threonine-protein kinase 3 (Homo sapiens) (Q13188 whole entry): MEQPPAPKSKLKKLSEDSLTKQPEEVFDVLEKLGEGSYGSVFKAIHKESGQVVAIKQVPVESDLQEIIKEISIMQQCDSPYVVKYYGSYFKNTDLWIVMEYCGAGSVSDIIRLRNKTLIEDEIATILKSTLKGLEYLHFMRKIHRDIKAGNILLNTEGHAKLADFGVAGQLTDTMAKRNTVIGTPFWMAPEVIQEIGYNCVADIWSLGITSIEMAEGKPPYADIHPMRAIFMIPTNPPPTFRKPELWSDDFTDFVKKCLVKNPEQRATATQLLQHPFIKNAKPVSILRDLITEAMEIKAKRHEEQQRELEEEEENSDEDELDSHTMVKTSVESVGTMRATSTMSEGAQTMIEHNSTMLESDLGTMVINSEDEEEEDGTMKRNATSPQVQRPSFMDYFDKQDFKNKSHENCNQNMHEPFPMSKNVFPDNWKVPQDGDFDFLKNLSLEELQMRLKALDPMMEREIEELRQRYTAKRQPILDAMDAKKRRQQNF

[18] = biological target: Serine/threonine-protein kinase 26 (Homo sapiens) (UniProt Q9P289); experiment: Inhibition of MST4 assessed as residual activity at 10 uM using [33P-ATP] by radiometric filter binding assay
[19] = biological target: Dual specificity tyrosine-phosphorylation-regulated kinase 3 (Homo sapiens) (UniProt O43781); experiment: Inhibition of DYRK3 assessed as residual activity at 10 uM using [33P-ATP] by radiometric filter binding assay
Sequence of Dual specificity tyrosine-phosphorylation-regulated kinase 3 (Homo sapiens) (O43781 whole entry): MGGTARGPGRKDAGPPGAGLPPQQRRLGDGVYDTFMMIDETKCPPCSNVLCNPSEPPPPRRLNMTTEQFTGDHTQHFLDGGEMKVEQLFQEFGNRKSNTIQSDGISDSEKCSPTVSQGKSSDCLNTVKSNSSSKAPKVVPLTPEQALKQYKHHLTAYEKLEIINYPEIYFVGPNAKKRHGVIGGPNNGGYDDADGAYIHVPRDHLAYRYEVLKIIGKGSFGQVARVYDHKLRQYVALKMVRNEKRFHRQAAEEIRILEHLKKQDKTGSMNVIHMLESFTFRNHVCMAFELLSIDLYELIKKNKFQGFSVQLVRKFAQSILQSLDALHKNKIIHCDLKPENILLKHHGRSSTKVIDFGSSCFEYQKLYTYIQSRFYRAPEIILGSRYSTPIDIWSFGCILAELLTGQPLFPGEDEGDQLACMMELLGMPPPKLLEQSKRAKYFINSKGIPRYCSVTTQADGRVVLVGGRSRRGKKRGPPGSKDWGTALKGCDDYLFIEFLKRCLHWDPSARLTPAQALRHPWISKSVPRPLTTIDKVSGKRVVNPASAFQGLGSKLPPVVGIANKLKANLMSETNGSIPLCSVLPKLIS

[20] = biological target: Serine/threonine-protein kinase BRSK1 (Homo sapiens) (UniProt Q8TDC3); experiment: Inhibition of BRSK1 assessed as residual activity at 10 uM using [33P-ATP] by radiometric filter binding assay
[21] = biological target: Serine/threonine-protein kinase tousled-like 1 (Homo sapiens) (UniProt Q9UKI8); experiment: Inhibition of TLK1 assessed as residual activity at 10 uM using [33P-ATP] by radiometric filter binding assay
[22] = biological target: Protein kinase C gamma type (Homo sapiens) (UniProt P05129); experiment: Inhibition of PKCgamma assessed as residual activity at 10 uM using [33P-ATP] by radiometric filter binding assay
[23] = biological target: Serine/threonine-protein kinase Chk1 (Homo sapiens) (UniProt O14757); experiment: Inhibition of CHK1 assessed as residual activity at 10 uM using [33P-ATP] by radiometric filter binding assay
[24] = biological target: Misshapen-like kinase 1 (Homo sapiens) (UniProt Q8N4C8); experiment: Inhibition of MINK1 assessed as residual activity at 10 uM using [33P-ATP] by radiometric filter binding assay
[25] = biological target: Mitogen-activated protein kinase kinase kinase 11 (Homo sapiens) (UniProt Q16584); experiment: Inhibition of MLK3 assessed as residual activity at 10 uM using [33P-ATP] by radiometric filter binding assay
[26] = biological target: Serine/threonine-protein kinase PAK 2 (Homo sapiens) (UniProt Q13177); experiment: Inhibition of PAK2 assessed as residual activity at 10 uM using [33P-ATP] by radiometric filter binding assay
[27] = biological target: Tyrosine-protein kinase BTK (Homo sapiens) (UniProt Q06187); experiment: Inhibition of BTK assessed as residual activity at 10 uM using [33P-ATP] by radiometric filter binding assay
[28] = biological target: Calcium/calmodulin-dependent protein kinase type 1 (Homo sapiens) (UniProt Q14012); experiment: Inhibition of CAMK1 assessed as residual activity at 10 uM using [33P-ATP] by radiometric filter binding assay
[29] = biological target: Tyrosine-protein kinase Lck (Homo sapiens) (UniProt P06239); experiment: Inhibition of Lck assessed as residual activity at 10 uM using [33P-ATP] by radiometric filter binding assay
[30] = biological target: NUAK family SNF1-like kinase 1 (Homo sapiens) (UniProt O60285); experiment: Inhibition of NUAK1 assessed as residual activity at 10 uM using [33P-ATP] by radiometric filter binding assay
[31] = biological target: Dual specificity protein kinase CLK2 (Homo sapiens) (UniProt P49760); experiment: Inhibition of CLK2 assessed as residual activity at 10 uM using [33P-ATP] by radiometric filter binding assay
[32] = biological target: Tyrosine-protein kinase JAK2 (Homo sapiens) (UniProt O60674); experiment: Inhibition of JAK2 assessed as residual activity at 10 uM using [33P-ATP] by radiometric filter binding assay
Sequence of Tyrosine-protein kinase JAK2 (Homo sapiens) (O60674 whole entry): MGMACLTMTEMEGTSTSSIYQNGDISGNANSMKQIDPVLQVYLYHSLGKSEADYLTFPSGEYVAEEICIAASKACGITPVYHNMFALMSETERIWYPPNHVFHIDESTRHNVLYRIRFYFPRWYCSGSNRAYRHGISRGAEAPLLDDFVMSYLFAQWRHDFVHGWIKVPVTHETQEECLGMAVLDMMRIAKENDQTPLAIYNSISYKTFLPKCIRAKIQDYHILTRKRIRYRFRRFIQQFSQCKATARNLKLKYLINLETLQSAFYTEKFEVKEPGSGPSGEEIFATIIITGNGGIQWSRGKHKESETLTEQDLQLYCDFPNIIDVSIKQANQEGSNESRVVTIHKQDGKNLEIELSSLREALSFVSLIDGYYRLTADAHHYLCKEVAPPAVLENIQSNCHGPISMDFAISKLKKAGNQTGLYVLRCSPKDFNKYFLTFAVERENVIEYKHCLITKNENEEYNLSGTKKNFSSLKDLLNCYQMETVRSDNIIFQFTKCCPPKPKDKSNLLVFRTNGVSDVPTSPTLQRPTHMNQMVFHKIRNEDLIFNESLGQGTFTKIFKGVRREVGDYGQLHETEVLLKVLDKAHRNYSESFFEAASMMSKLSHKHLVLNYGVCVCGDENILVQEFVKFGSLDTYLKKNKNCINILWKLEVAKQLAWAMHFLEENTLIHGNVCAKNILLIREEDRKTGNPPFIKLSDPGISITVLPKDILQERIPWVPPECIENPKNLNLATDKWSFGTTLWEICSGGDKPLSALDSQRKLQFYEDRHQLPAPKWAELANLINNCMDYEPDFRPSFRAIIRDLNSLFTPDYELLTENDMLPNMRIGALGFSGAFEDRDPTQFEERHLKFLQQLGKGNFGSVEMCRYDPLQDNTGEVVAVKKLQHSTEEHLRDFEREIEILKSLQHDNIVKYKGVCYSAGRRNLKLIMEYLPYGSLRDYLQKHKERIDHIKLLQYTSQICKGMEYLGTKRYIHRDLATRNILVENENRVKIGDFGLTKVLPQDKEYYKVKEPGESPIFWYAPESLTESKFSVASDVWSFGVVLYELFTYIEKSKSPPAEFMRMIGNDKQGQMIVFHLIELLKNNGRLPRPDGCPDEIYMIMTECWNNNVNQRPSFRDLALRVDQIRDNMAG

Molecule `Cc1ccc(F)cc1-c1nc2[nH]nc(N)c2c2c1CCCC2` has an Activity [1] of 113%, an Activity [2] of 87% and an Activity [3] of 52%. It also gave an Activity [4] of 73%, an Activity [5] of 90% and an Activity [6] of 89%. For the same molecule, the Activity [7] was 89%, the Activity [8] was 83% and the Activity [9] was 103%. For the same molecule, the Activity [10] was 91%, the Activity [11] was 100% and the Activity [12] was 82%. It also gave an Activity [13] of 99%, an Activity [14] of 72% and an Activity [15] of 94%. For the same molecule, the Activity [16] was 115%, the Activity [17] was 66% and the Activity [18] was 52%. For the same molecule, the Activity [19] was 95%, the Activity [20] was 52% and the Activity [21] was 99%. The Activity [22] was 108%, the Activity [23] was 100% and the Activity [24] was 65%. It also gave an Activity [25] of 60%, an Activity [26] of 79% and an Activity [27] of 30%. It also gave an Activity [28] of 75%, an Activity [29] of 8% and an Activity [30] of 79%. For the same molecule, the Activity [31] was 45% and the Activity [32] was 74%.
